Patent US11197863B2, “Inhibitors of polo-like kinase 4 (PLK4) for treating pediatric embryonal tumors” (ANN AND ROBERT H. LURIE CHILDREN'S HOSPITAL OF CHICAGO, priority 2017, dated 2021)

Tests used:
[1] = system: DAOY and D283 cells; test: Migration and invasion assays, MB cell lines; format: cell-based, human; details: 100 nM, 24 hour vs 0.1% DMSO
Procedure: Both migration and invasion were assessed using a 24-well Transwell chamber system (Corning, USA).[35] MON cells were plated at 20,000 per well for cell migration and at 50,000 per well coated with matrigel (200 μg/ml, 3 hr of solidification) for cell invasion. HFF-SCC058 cells were used as negative controls. […] All experiments were performed in triplicates.
For proliferation assay DAOY was plated with 5×10^4 cells per well and D283 was plated with 5×10^5 cells per well.

[2] = system: CYP450 isoenzymes 1A2, 2B6, 2C8, 2C9, 2C19, 2D6, 2J2, 3A4 and 3A5 (except 3A4 BOMCC); test: P450 profiling with Vivid substrates; format: in vitro ADME; details: human, probe Vivid substrates; isoenzymes recommended for testing by FDA guidance except 3A4 BOMCC; 500 nM highest tested concentration

COc1ccc2c(c1)[C@]1(C[C@H]1c1ccc3c(/C=C/c4ccc(CN5C[C@@H](C)O[C@@H](C)C5)cc4)n[nH]c3c1)C(=O)N2 [CFI-400945]
cell migration and invasion [1]: significant decrease in cell migration and invasion
IC50 [2]: > 0.5 µM
